Among the data in ChEMBL document CHEMBL1151614, “Microbial transformations of natural antitumor agents, 25. Conversions of 3-ketoaphidicolin” (1984) are ED50 values, retold here.

≈ marks a conversion by molar mass, not a printed value.

The assay relates to P388. Briefly: In vivo antitumor activity against mouse P388 cells. Format: functional.
`C[C@@H]1C(=O)CC[C@@]2(C)[C@H]1CC[C@H]1C[C@@H]3C[C@@]12CC[C@]3(O)CO` registered an ED50 of 12 µg/mL (≈ 39.2 µM).

For the molecule `C[C@@]1(CO)[C@H](O)CC[C@@]2(C)[C@H]1[C@H](O)C[C@H]1C[C@@H]3C[C@@]12CC[C@]3(O)CO`, the ED50 was 18 µg/mL (≈ 50.8 µM).

`C[C@@]1(CO)[C@@H](O)CC[C@@]2(C)[C@H]1CC[C@H]1C[C@@H]3C[C@@]12CC[C@]3(O)CO` registered an ED50 of 13 µg/mL (≈ 38.4 µM).

In turn, `C[C@@]1(CO)[C@H](O)CC[C@@]2(C)[C@H]1CC[C@H]1C[C@@H]3C[C@@]12CC[C@]3(O)CO` [APHIDICOLIN] displayed an ED50 of 0.13 µg/mL (≈ 0.384 µM).

Molecule `C[C@]12CCC(=O)[C@@](C)(CO)[C@@H]1[C@H](O)C[C@H]1C[C@@H]3C[C@@]12CC[C@]3(O)CO` returned an ED50 of 100 µg/mL (≈ 284 µM).

Turning to `C[C@]12CCC(=O)[C@@](C)(CO)[C@@H]1CC[C@H]1C[C@@H]3C[C@@]12CC[C@]3(O)CO`, the ED50 is 2.4 µg/mL (≈ 7.13 µM).

Molecule `C[C@@]1(C(=O)O)[C@H](O)CC[C@@]2(C)[C@H]1CC[C@H]1C[C@@H]3C[C@@]12CC[C@]3(O)CO` showed an ED50 of 2.2 µg/mL (≈ 6.24 µM).
